{"source": "patent US8748109B2", "about": "“Method for the detection of organ or tissue injury” (priority 2009, dated 2014)", "key": {"caspase-3": {"test_system": "caspase-3", "assay": "Caspase-3 western blotting of liver cytosol", "assay_type": "in vivo, mouse", "parameters": "key to Caspase 3 processing (WB): (+) indicates positive detection of DNA laddering or processing of caspase-3 by western blot (WB)", "conditions": "for Caspase 3 processing (WB): hepatic, APAP 530 mg/kg i.p., CD-1 mice", "experimental": "(§1) Caspase-3 western blotting was carried out as described previously (30) on mouse liver cytosol fractions prepared from snap frozen livers. DNA was isolated from snap frozen livers using the Sigma-Aldrich GeneElute kit according to the manufacturer's instructions. DNA laddering was visualised through ethidium bromide staining following separation on a 1% agarose gel. […] The number of cleaved caspase-3 positive cells (cytoplasmic staining) was evaluated semi-quantitatively (− no positive cells; + scattered positive cells; ++ moderate number of positive cells, +++ numerous positive cells)."}, "DNA laddering": {"test_system": "DNA laddering", "assay": "Hepatic DNA laddering (agarose gel)", "assay_type": "in vivo, mouse", "parameters": "key: (+) indicates positive detection of DNA laddering or processing of caspase-3 by western blot (WB)", "experimental": "as §1"}, "ALT": {"test_system": "ALT", "assay": "Serum alanine transaminase (ALT) activity", "assay_type": "in vivo, mouse", "conditions": "for Serum Biomarker elevation ALT activity: APAP 530 mg/kg i.p., CD-1 mice"}, "[1]": {"test_system": "Total hepatic glutathione (GSH+GSSG)", "assay": "Determination of hepatic glutathione levels", "assay_type": "in vivo, mouse", "parameters": "key to GSH depletion: (+) indicates significant; (−) non-significant hepatic GSH depletion compared to control animals", "conditions": "for GSH depletion: hepatic, APAP 530 mg/kg i.p., CD-1 mice", "experimental": "Total hepatic glutathione (GSH+GSSG) levels were determined as described previously (29)."}, "HMGB-1": {"test_system": "HMGB-1", "source_text": "(A) Schematic overview of the location of cysteine 106 within the cytokine domain of murine HMGB-1 which is characterized by MS/MS. […] MS/MS and western figures are representative of 6 mice per group."}, "HMGB1 [2]": {"test_system": "HMGB1", "assay": "Total serum HMGB1 by ELISA", "assay_type": "in vivo, mouse", "conditions": "for Serum Biomarker elevation Total HMGB1: APAP 530 mg/kg i.p., CD-1 mice"}, "HMGB1 [3]": {"test_system": "HMGB1", "assay": "Serum hypo- and hyper-acetylated HMGB1 by LC-MS/MS (relative values)", "assay_type": "in vivo, mouse", "conditions": "APAP 530 mg/kg, mice, post dose, 0-24 hr time course", "experimental": "Overnight immunoprecipitations (IP) of serum K18 and HMGB1 (5 μg antibody and protein G separation) were subjected to SDS-PAGE. Protein bands were excised from Coomassie Blue-stained gels, destained by incubation with 50% acetonitrile/50 mM ammonium bicarbonate followed by vacuum drying. Gel pieces were rehydrated in 50 mM ammonium bicarbonate containing 40 ng/μL modified trypsin (K18) or GluC (HMGB1) and incubated for 16 hr at 37° C. Peptides were extracted by incubation with 2 changes of 60% acetonitrile/1% trifluoroacetic acid and the resulting supernatants were again dried. Extracts were desalted using C18 ZipTips according to the manufacturer's instructions and reconstituted in 5% acetonitrile/0.1% trifluoroacetic acid. For LC-MS/MS analysis, samples were delivered into a QSTAR Pulsar i hybrid mass spectrometer (Applied Biosystems) by automated in-line liquid chromatography (integrated LC-Packings System, 5 mm C18 nano-precolumn and 75 μm×15 cm C18 PepMap column (Dionex, Calif., USA) via a nano-electrospray source head and 10 μm inner diameter PicoTip (New Objective, USA). A gradient from 5% acetonitrile/0.05% trifluoroacetic acid (v/v) to 48% acetonitrile/0.05% trifluoroacetic acid (v/v) in 60 min was applied at a flow rate of […], MS and MS/MS spectra were acquired automatically in positive ion mode using information-dependent acquisition (Analyst, Applied Biosystems). Database searching was performed using Protein Pilot 2 (Applied Biosystems) with the latest version of the SwissProt database, with the confidence level set at 80%, and with biological modifications allowed. Quantification of murine serum full length K18 and caspase dependent K18 fragments was accomplished through construction of standard curves generated with synthetic peptide standards spiked into and could be recovered from control serum and compared to immunoassay (17). The full length K18 standard ([…]) was designed to span the caspase 3, 7, 9 cleavage site, whereas the abbreviated peptide ([…]) is only derived from K18 fragments with the caspase cleavage site cut (limit of detection; 300 fmol/ml. coefficient of variation; <10%). HMGB1 and its hyper-acetylated derivative were quantified by spectral counting of the peptide peak, since no synthetic standards were available, and are consequently presented only as relative values and compared to total levels determined by ELISA according to the manufacturer's instructions (limit of detection; 0.1 ng/ml. coefficient of variation; <10%)."}, "apoptotic markers": {"test_system": "apoptotic markers", "assay": "Effect of Z-VAD.fmk on APAP-induced apoptotic markers (DNA laddering, pro-caspase 3 processing, serum caspase cleaved K18)", "assay_type": "in vivo, mouse", "conditions": "Z-VAD.fmk 10 mg/kg i.v. 15 min pre-APAP (530 mg/kg; 5 hr), compared with APAP alone", "experimental": "as §1\nOvernight immunoprecipitations (IP) of serum K18 and HMGB1 (5 μg antibody and protein G separation) were subjected to SDS-PAGE. […] Quantification of murine serum full length K18 and caspase dependent K18 fragments was accomplished through construction of standard curves generated with synthetic peptide standards spiked into and could be recovered from control serum and compared to immunoassay (17). […] HMGB1 and its hyper-acetylated derivative were quantified by spectral counting of the peptide peak, since no synthetic standards were available, and are consequently presented only as relative values and compared to total levels determined by ELISA according to the manufacturer's instructions (limit of detection; 0.1 ng/ml. coefficient of variation; <10%)."}, "male CD-1 mice": {"test_system": "male CD-1 mice", "assay": "Histological assessment of hepatotoxicity (H&E liver sections, hepatocyte loss score)", "conditions": "APAP co-dosed with Z-VAD.fmk, 5 hr"}, "[4]": {"conditions": "APAP 530 mg/kg, mice, 10 hr post treatment"}, "[5]": {"conditions": "APAP 530 mg/kg, mice, 3-24 hr time course"}}, "note": "Residues, ends and D or L forms follow the SMILES beside them. *: point of attachment. Cbz = O=C(OCc1ccccc1)*; CH2F = FC*", "data": [{"smiles": "CC(=O)Nc1ccc(O)cc1", "note": "[APAP, Acetaminophen]", "values": [{"measurement": "caspase 3 processing", "setting": "caspase-3; [4]", "result": "no evidence"}, {"measurement": "Caspase 3 processing (WB)", "setting": "caspase-3; 3 hr", "result": "+"}, {"measurement": "Caspase 3 processing (WB)", "setting": "caspase-3; 5 hr", "result": "+"}, {"measurement": "Caspase 3 processing (WB)", "setting": "caspase-3; 10 hr", "result": "+"}, {"measurement": "DNA laddering", "setting": "DNA laddering; [4]", "result": "no evidence"}, {"measurement": "DNA laddering", "setting": "DNA laddering; hepatic, APAP 530 mg/kg i.p., CD-1 mice, 3 hr", "result": "+"}, {"measurement": "DNA laddering", "setting": "DNA laddering; hepatic, APAP 530 mg/kg i.p., CD-1 mice, 5 hr", "result": "+"}, {"measurement": "Serum Biomarker elevation ALT activity", "setting": "ALT; 3 hr", "result": "+"}, {"measurement": "Serum Biomarker elevation ALT activity", "setting": "ALT; 5 hr", "result": "+"}, {"measurement": "Serum Biomarker elevation ALT activity", "setting": "ALT; 10 hr", "result": "+"}, {"measurement": "Serum Biomarker elevation ALT activity", "setting": "ALT; 15 hr", "result": "+"}, {"measurement": "Serum Biomarker elevation ALT activity", "setting": "ALT; 20 hr", "result": "+"}, {"measurement": "Serum Biomarker elevation ALT activity", "setting": "ALT; 24 hr", "result": "+"}, {"measurement": "increased serum ALT activity, time course", "setting": "ALT; [5]", "result": "observed over the entire time course"}, {"measurement": "GSH depletion", "setting": "[1]; 3 hr", "result": "+"}, {"measurement": "GSH depletion", "setting": "[1]; 5 hr", "result": "+"}, {"measurement": "GSH depletion", "setting": "[1]; 10 hr", "result": "−"}, {"measurement": "GSH depletion", "setting": "[1]; 15 hr", "result": "−"}, {"measurement": "GSH depletion", "setting": "[1]; 20 hr", "result": "−"}, {"measurement": "GSH depletion", "setting": "[1]; 24 hr", "result": "−"}, {"measurement": "serum molecular form of HMGB-1 present", "setting": "HMGB-1; fasted mice dosed with APAP (530 mg/kg; 5 h)", "result": "the only serum molecular form of HMGB-1 present was the reduced form"}, {"measurement": "predominant form of HMGB-1 in sera", "setting": "HMGB-1; fed mice dosed with APAP (530 mg/kg; 5 h)", "result": "oxidized, immune-tolerant form"}, {"measurement": "toxicity", "setting": "HMGB-1; mouse, in vivo", "result": "displaying toxicity"}, {"measurement": "Serum Biomarker elevation Total HMGB1", "setting": "HMGB1 [2]; 3 hr", "result": "+"}, {"measurement": "Serum Biomarker elevation Total HMGB1", "setting": "HMGB1 [2]; 5 hr", "result": "+"}, {"measurement": "Serum Biomarker elevation Total HMGB1", "setting": "HMGB1 [2]; 10 hr", "result": "+"}, {"measurement": "Serum Biomarker elevation Total HMGB1", "setting": "HMGB1 [2]; 15 hr", "result": "+"}, {"measurement": "Serum Biomarker elevation Total HMGB1", "setting": "HMGB1 [2]; 20 hr", "result": "−"}, {"measurement": "Serum Biomarker elevation Total HMGB1", "setting": "HMGB1 [2]; 24 hr", "result": "−"}, {"measurement": "last time point with serum HMGB1 elevation", "setting": "HMGB1 [2]; [5]", "result": "≤ 15", "unit": "h"}, {"measurement": "time of first significant elevation of necrosis-associated (hypo-acetylated) serum HMGB1", "setting": "HMGB1 [3]", "result": 3, "unit": "h"}, {"measurement": "time of first significant increase of immune cell derived (hyper-acetylated) serum HMGB1", "setting": "HMGB1 [3]", "result": 5, "unit": "h"}, {"measurement": "time of peak of immune cell derived (hyper-acetylated) serum HMGB1", "setting": "HMGB1 [3]", "result": 15, "unit": "h"}, {"measurement": "time of return to control levels of immune cell derived (hyper-acetylated) serum HMGB1", "setting": "HMGB1 [3]", "result": "≤ 24", "unit": "h"}]}, {"smiles": "COC(=O)C[C@H](NC(=O)[C@H](C)NC(=O)[C@@H](NC(=O)OCc1ccccc1)C(C)C)C(=O)CF", "note": "[Z-VAD.fmk] (Cbz-Val-Ala-Asp(OMe)-CH2F)", "values": [{"measurement": "detection of apoptotic markers in APAP dosed mice", "setting": "apoptotic markers", "result": "completely inhibited"}, {"measurement": "apoptotic hepatocyte death by histology and immunohistology for cleaved caspase-3", "setting": "male CD-1 mice", "result": "no evidence"}, {"measurement": "Histological scoring of centrilobular hepatocyte loss", "setting": "male CD-1 mice; score 0-5, higher than APAP alone (p<0.05)", "result": "2-3"}, {"measurement": "serum ALT level compared with APAP alone", "setting": "ALT; Z-VAD.fmk and APAP (530 mg/kg; 5 hr)", "result": "increased"}, {"measurement": "effect on APAP-mediated GSH depletion", "setting": "[1]; Z-VAD.fmk pre-treatment, APAP 530 mg/kg, 5 hr", "result": "no effect"}, {"measurement": "molecular form of HMGB1 detected", "setting": "HMGB-1; Z-VAD.fmk in APAP-treated, fed mice", "result": "only the reduced molecular form"}]}]}
